Experimental data as given in PubChem BioAssay AID1919014 (Molecular Pharmacology Branch, DTP, NCI, 2023).
pIC50: −log10 of the molar value.

Tested on: NCI-H1341 complex spheroids, percent test/control
Assay: Anticancer human tumor NCI-H1341 cell line growth inhibition [AhR];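 further: spheroids exposed to agents for seven days before readout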
Conditions: for pIC50: curve of first compound; for viability, T/C: stronger effect = lower value
From the text: Multicellular complex tumor spheroid response to aryl hydrocarbon receptor antagonists in combination with a variety of drugs and investigational agents in selected tumor cell lines
The current study was undertaken to assess response to aryl hydrocarbon receptor antagonists in combination with standard-of-care drugs and investigational agents in solid tumor complex spheroid models. Complex spheroids include a stromal component modeled by human endothelial cells (HUVEC) and fibroblasts modeled by human mesenchymal stem cells (MSCs). The concentration ranges selected for each drug and investigational agent were based upon clinically achievable concentrations if the clinical Cmax of the agent was known.
Compounds. The drugs and investigational agents: BAY 2416964 (NSC825713), GNF351 (NSC835774), CH-223191 (NSC835775), CPI-455 (NSC825282), aza-TdCyd (NSC777586), decitabine (NSC127716), belinostat (NSC758774), entinostat (NSC756642), pevonedistat (NSC761192), tazemetostat (NSC777109), talazoparib (NSC765396), olaparib (NSC753686), selinexor (NSC780203), nedisertib (M3814, NSC802822), bortezomib (NSC756655), venetoclax (NSC766270), doxorubicin (NSC123127), elimusertib (BAY189344, NSC800525), ceralasertib (AZD6738, NSC777638), TAK-243 (NSC785004), alisertib (NSC759677), etoposide (NSC141540), topotecan (NSC609699), eribulin (NSC707389), gemcitabine (NSC613327), carboplatin (NSC241240), cisplatin (NSC119875), and SN-38 (NSC673596) were obtained from the National Cancer Institute (NCI) Developmental Therapeutics Program Chemical Repository (32). The FDA-approved anticancer drug set is available from the Developmental Therapeutics Program at https://dtp.cancer.gov/organization/dscb/obtaining/available plates.htm. […] The stock solutions were prepared in dimethyl sulfoxide (DMSO, Sigma-Aldrich, St. Louis, MO, cat. D2650), except for the platinum compounds which were prepared in saline (Quality Biological, Gaithersburg, MD, cat. 114-055-101), at 800-fold the tested concentration and stored at -70 degrees C prior to their use. All drugs and investigational agents were tested over a range starting from a high concentration at or near the clinical Cmax and decreasing in half-log increments. If the clinical Cmax for an agent had not been determined, the highest concentration tested was 10 microM (Table 1).
Cell Culture. All cells were maintained in an incubator at 37 degrees C and 5% CO2 with 95% humidity. The PDC lines were cultured according to standard operating procedures established by the NCI PDMR (https://pdmr.cancer.gov). Briefly, all PDCs were thawed and cultured in Matrigel-coated flasks prepared with a working solution of 1X Ham's F-12 nutrient mix, without supplementation (Invitrogen, Waltham, MA, cat. 11765054), 100 U/mL penicillin-streptomycin (Invitrogen, cat. 15140122), and 2.5% Matrigel (Corning Inc., Corning, NY, cat. 354248) for the first three passages. All PDCs were cultured in complete DMEM/F-12 media containing advanced DMEM/F-12 (Invitrogen, cat. 12634028), 4.9% defined fetal bovine serum, heat inactivated (HyClone Laboratories Inc., Logan, UT, cat. SH30070.03HI), 389 ng/mL hydrocortisone (Sigma-Aldrich, cat. H4001), 9.7 ng/mL human EGF recombinant protein (Invitrogen, cat. PHG0313), 23.4 microg/mL adenine (Sigma-Aldrich, cat. A2786), 97.3 U/mL penicillin-streptomycin (Invitrogen, cat. 15140122), 1.9 mM L-glutamine (Invitrogen, cat. 25030081), and 9.7 microM Y-27632 dihydrochloride (Tocris Bioscience, Bristol, United Kingdom, cat. 1254). The PDCs were cultured in complete DMEM/F12 media without 10 microM Y-27632 dihydrochloride for at least two passages prior to the screen. The established cell lines NCI-H1341 and […] were cultured in DMEM/F-12, HEPES (Invitrogen, cat. 11330032), 5% defined fetal bovine serum (HyClone Laboratories Inc., cat. SH30070.03), ITS premix universal culture supplement [insulin (5 microg/mL), transferrin (5 microg/mL), and selenious acid (5 ng/mL)] […]

For `CCc1c2c(nc3ccc(O)cc13)-c1cc3c(c(=O)n1C2)COC(=O)[C@]3(O)CC` + CC(CO)NC(=O)c1cc(-c2ccc(Cl)cc2)nn(-c2cnn(C)c2)c1=O, the pIC50 (second compound 0.1 µM) was 7.91, the pIC50 (second compound 0.316 µM) was 8.10 and the pIC50 (second compound 1 µM) was 8.02. The pIC50 (second compound 3.16 µM) was 8.29, the pIC50 (second compound 10 µM) was 8.46 and the viability, T/C (second compound 0.1 µM, first compound 0.000949 µM) was 67.7%. The viability, T/C (second compound 0.1 µM, first compound 0.003 µM) was 74%, the viability, T/C (second compound 0.1 µM, first compound 0.00949 µM) was 46.6% and the viability, T/C (second compound 0.1 µM, first compound 0.03 µM) was 38.8%. It also gave a viability, T/C (second compound 0.1 µM, first compound 0.0949 µM) of 30.7%, a viability, T/C (second compound 0.1 µM, first compound 0.3 µM) of 16.9% and a viability, T/C (second compound 0.316 µM, first compound 0.000949 µM) of 71.8%. It also gave a viability, T/C (second compound 0.316 µM, first compound 0.003 µM) of 61.8%, a viability, T/C (second compound 0.316 µM, first compound 0.00949 µM) of 48.1% and a viability, T/C (second compound 0.316 µM, first compound 0.03 µM) of 33.4%. The viability, T/C (second compound 0.316 µM, first compound 0.0949 µM) was 26.5%, the viability, T/C (second compound 0.316 µM, first compound 0.3 µM) was 16% and the viability, T/C (second compound 1 µM, first compound 0.000949 µM) was 62.8%. The viability, T/C (second compound 1 µM, first compound 0.003 µM) was 67.6%, the viability, T/C (second compound 1 µM, first compound 0.00949 µM) was 48.2% and the viability, T/C (second compound 1 µM, first compound 0.03 µM) was 31.4%. It also gave a viability, T/C (second compound 1 µM, first compound 0.0949 µM) of 29.5%, a viability, T/C (second compound 1 µM, first compound 0.3 µM) of 17.4% and a viability, T/C (second compound 3.16 µM, first compound 0.000949 µM) of 73%. For the same compound, the viability, T/C (second compound 3.16 µM, first compound 0.003 µM) was 53.2%, the viability, T/C (second compound 3.16 µM, first compound 0.00949 µM) was 39% and the viability, T/C (second compound 3.16 µM, first compound 0.03 µM) was 37.4%. It also gave a viability, T/C (second compound 3.16 µM, first compound 0.0949 µM) of 26.5%, a viability, T/C (second compound 3.16 µM, first compound 0.3 µM) of 14.1% and a viability, T/C (second compound 10 µM, first compound 0.000949 µM) of 61%. For the same compound, the viability, T/C (second compound 10 µM, first compound 0.003 µM) was 47.9%, the viability, T/C (second compound 10 µM, first compound 0.00949 µM) was 43.8% and the viability, T/C (second compound 10 µM, first compound 0.03 µM) was 32.4%. For the same compound, the viability, T/C (second compound 10 µM, first compound 0.0949 µM) was 23.4% and the viability, T/C (second compound 10 µM, first compound 0.3 µM) was 10.8%.
With `O=C(c1cc(Cc2n[nH]c(=O)c3ccccc23)ccc1F)N1CCN(C(=O)C2CC2)CC1` + CC(CO)NC(=O)c1cc(-c2ccc(Cl)cc2)nn(-c2cnn(C)c2)c1=O the pIC50 (second compound 0.1 µM) was under 5.00, the pIC50 (second compound 0.316 µM) was under 5.00 and the pIC50 (second compound 1 µM) was under 5.00. For the same compound, the pIC50 (second compound 3.16 µM) was under 5.00, the pIC50 (second compound 10 µM) was under 5.00 and the viability, T/C (second compound 0.1 µM, first compound 0.0316 µM) was 89.5%. For the same compound, the viability, T/C (second compound 0.1 µM, first compound 0.1 µM) was 98.4%, the viability, T/C (second compound 0.1 µM, first compound 0.316 µM) was 93.7% and the viability, T/C (second compound 0.1 µM, first compound 1 µM) was 89.2%. The viability, T/C (second compound 0.1 µM, first compound 3.16 µM) was 82.4%, the viability, T/C (second compound 0.1 µM, first compound 10 µM) was 70.6% and the viability, T/C (second compound 0.316 µM, first compound 0.0316 µM) was 96.1%. The viability, T/C (second compound 0.316 µM, first compound 0.1 µM) was 93.6%, the viability, T/C (second compound 0.316 µM, first compound 0.316 µM) was 91.6% and the viability, T/C (second compound 0.316 µM, first compound 1 µM) was 80.1%. It also gave a viability, T/C (second compound 0.316 µM, first compound 3.16 µM) of 77.1%, a viability, T/C (second compound 0.316 µM, first compound 10 µM) of 72.7% and a viability, T/C (second compound 1 µM, first compound 0.0316 µM) of 80.6%. The viability, T/C (second compound 1 µM, first compound 0.1 µM) was 105%, the viability, T/C (second compound 1 µM, first compound 0.316 µM) was 97.3% and the viability, T/C (second compound 1 µM, first compound 1 µM) was 81.5%. It also gave a viability, T/C (second compound 1 µM, first compound 3.16 µM) of 86.8%, a viability, T/C (second compound 1 µM, first compound 10 µM) of 74.6% and a viability, T/C (second compound 3.16 µM, first compound 0.0316 µM) of 94.4%. It also gave a viability, T/C (second compound 3.16 µM, first compound 0.1 µM) of 90.6%, a viability, T/C (second compound 3.16 µM, first compound 0.316 µM) of 94.8% and a viability, T/C (second compound 3.16 µM, first compound 1 µM) of 75.9%. The viability, T/C (second compound 3.16 µM, first compound 3.16 µM) was 84.2%, the viability, T/C (second compound 3.16 µM, first compound 10 µM) was 60.7% and the viability, T/C (second compound 10 µM, first compound 0.0316 µM) was 70.2%. It also gave a viability, T/C (second compound 10 µM, first compound 0.1 µM) of 77.5%, a viability, T/C (second compound 10 µM, first compound 0.316 µM) of 85% and a viability, T/C (second compound 10 µM, first compound 1 µM) of 65.9%. It also gave a viability, T/C (second compound 10 µM, first compound 3.16 µM) of 71.9% and a viability, T/C (second compound 10 µM, first compound 10 µM) of 58.6%.
